Test results from patent US7566808B2, “Management of ophthalmologic disorders, including macular degeneration” (President and Fellows of Harvard College, priority 2004, dated 2009).

Columns and labels:
Format in all cases: in vivo
Balb/c mice = assay: 11-cis-retinal regeneration after bleaching in mice
Procedure: Animal Studies: Protocols were approved by the Standing Committee on Animal Care of Harvard Medical School, the Institutional Animal Care and Use Committee of Columbia University and complied with guidelines set forth by The Association for Research in Vision and Ophthalmology. 7 week old male Balb/c albino mice and 7 week old male Sprague-Dawley rats were from Charles River Breeding Laboratories and were housed in 12:12 h light:dark cycle. 8-10 week old Abcr null mutant mice (129/SV×C57BL/6J) were generated as formerly described (12,20) and Abcr^−/− and Abcr^+/+ mice were raised under 12-hour on-off cyclic lighting with an in-cage illuminance of 30-50 lux. In Abcr^−/− and Abcr^+/+ mice, Rpe65 was 9 sequenced as reported previously.
Similar experiments with inhibitors were also performed in Balb/c mice. Here again inhibition is observed, but the effects are less pronounced than in rats, both with 13-RA and the isoprenoid antagonists. The inhibition values are as follows: 13-RA (33±4%), TDT (35±2%), and TDH (24±6%). It is noteworthy that in rats the 11-cis chromophore is regenerated considerably more slowly than in mice.

[1] = tested on: Abca4+/+ (Rpe65 450Leu, pigmented, 129/SV×C57BL/6J) mice; assay: ERG rod b-wave amplitude recovery after photo-bleaching; conditions: 50 mg/kg i.p., 3 days after treatment
Procedure: Electroretinogram Determinations (ERG): Mice were dark-adapted overnight before all ERG experiments. To determine the acute effect of compounds under study, mice were given a single i.p. injection of […] Control (“untreated”) animals were injected with 25 uL of DMSO. Mice were anaesthetized with ketamine (80 mg/kg) and xylazine (5-10 mg/kg) and pupils were dilated with 1% phenylephrine and 1% cyclopentolate, followed by an exposure to 5000 lux bleaching light for 2 min.
The ERG was recorded from the cornea with a cotton wick saline electrodes for about 50 min immediately after bleaching. Subcutaneous 30 gauge needles on the forehead and trunk were used as reference and ground electrodes, respectively. The animals rested on a heater maintaining the body temperature at 37° C. The light stimulus was obtained from a ganzfeld stimulator having a stroboscope (PS33 Grass Instruments Inc., West Warwick, R.I.) removed from its housing and recessed above and behind the head of the mouse. The flash was diffused to cover the ganzfeld homogeneously. Maximum flash intensity was measured with a calibrated light meter (J16 Tektronics Instruments, Beaverton, Oreg.). Responses were averaged by a Macintosh computer-controlled data acquisition system (PowerLab, AD Instruments, Mountain View, Calif.) at a frequency of 0.1 Hz. […]
The same animals were subjected to ERG experiments according to exactly the same protocol 3 days later, except no (repeated) injection of compounds was performed.
Acute effects: In order to determine whether TDT and TDH have an effect on the visual cycle in vivo, the overnight dark-adapted Abca4^+/+ (Rpe65 450Leu, pigmented, 129/SV×C57BL/6J) mice received single (i.p.) injections of the two compounds at 50 mg/kg. […]
Results are averaged from three mice in each group with SD bars shown. Both isoprenoids delayed the recovery of dark-adapted visual responses to an extent similar to that of 13-RA as judged from dark-adapted ERG b-wave amplitudes recorded using dim light flashes delivered immediately before and at regular intervals after photo-bleaching.

Sprague Dawley rats = assay: 11-cis-retinal regeneration after bleaching in rats; conditions: for average inhibition of 11-cis-retinal regeneration: 50 mg/kg i.p. single injection, rats
Procedure: To establish whether recovery of the dark-adapted rod b-wave was retarded because of an effect on 11-cis-retinal synthesis we studied the effects of TDT on 11-cis-retinal regeneration in rats and mice. The 11-cis-retinal that is regenerated is essentially all bound to rhodopsin in rodents, so that measuring its level is equivalent to measuring the rhodopsin content. Initial experiments were performed on Sprague Dawley rats because similar experiments using 13-RA were previously carried out using these animals so that ready comparisons of potency and effectiveness can be made. […] Accordingly, in the current experiments, the rats were given single injections (i.p.) of TDT (TDH) (50 mg/kg in DMSO), 13-RA (50 mg/kg in DMSO), and DMSO alone. After injecting the analogs, the rats were dark adapted for 2 h, and then exposed to light that led to <10% of dark adapted 11-cis-retinal in these animals, compared to dark adapted controls (data not shown). After allowing the bleached rats to dark-adapt again for 30 min, the animals were sacrificed, and the regenerated 11-cis-retinal was determined as indicated in Methods. In these experiments, the amount of resynthesized 11-cis-retinal, the chromophore of rhodopsin, is measured by HPLC and compared to the amounts of all-trans-retinyl ester precursor.
These figures show results of HPLC analysis of extracted retinoids from drug treated rats. […] In FIG. 28A, the relative amounts of 11-cis-retinal-syn-oxime and all-trans-(cis)-retinyl esters are shown for the control (−13-RA) (top) and drug treated animals (bottom). In FIG. 28B, the corresponding data are shown for the TDT treated rats (top-control, bottom TDT treated). In this case, the ester pool in the drug treated rat is largely, if not exclusively, all-trans. […] Upon repetition of the experiments two further times the average inhibition values are as follows: 13-RA (78±2%), TDT (79±4%), and TDH (55±2%). These percent inhibition values are generated by comparing the integrated areas under the retinyl ester and 11-cis-retinal-syn-oxime peaks. (Materials and Methods).

Compound	inhibition of 11-cis-retinal regeneration (Balb/c mice)	effect on rod b-wave recovery [1]	average inhibition of 11-cis-retinal regeneration (Sprague Dawley rats)	inhibitory effect on 11-cis-retinal regeneration (Sprague Dawley rats; 50 mg/kg i.p., FIG. 28C)
CC1=C(/C=C/C(C)=C/C=C/C(C)=C\C(=O)O)C(C)(C)CCC1 [13-cis-retinoic acid, reference compound]	33±4%	no sustained effect	78±2%	
CCCCCCCCCCCCCCCCNC(=O)/C=C(\C)CC/C=C(\C)CCC=C(C)C [TDH, 3,7,11-Trimethyl-dodeca-2,6,10-trienoic acid hexadecylamide]	24±6%	substantial effect	55±2%	less pronounced than with TDT
CCCCCCCCCCC(=O)/C=C(\C)CC/C=C(\C)CCC=C(C)C [TDT, 13,17,21-Trimethyl-docosa-12,16,20-trien-11-one]	35±2%	substantial effect	79±4%	
